Measurements from ChEMBL document CHEMBL3045426, “Synthesis, Antiviral and Antibacterial Activities of Isatin Mannich Bases” (Med Chem Res, 2005).
Values after ≈ are worked out from the molar mass of the structure shown.

Experiments:
[1] = Selectivity index, ratio of CC50 for human MT4 cells to EC50 for HIV1 3B infected in MT4 cells; format: toxicity, cell-based; settings: read-out: Ratio CC50/EC50
Vibrio cholerae [2] = assay: Antimicrobial activity against Vibrio cholerae 01 after 18 to 20 hr by agar dilution method; format: functional; settings: 1
Priestia megaterium = assay: Antimicrobial activity against Bacillus megaterium after 18 to 20 hr by agar dilution method; format: functional
Enterobacter = assay: Antimicrobial activity against Enterobacter after 18 to 20 hr by agar dilution method; format: functional
Citrobacter freundii = assay: Antimicrobial activity against Citrobacter freundii after 18 to 20 hr by agar dilution method; format: functional
Salmonella enteritidis = assay: Antimicrobial activity against Salmonella enterica subsp. enterica serovar Enteritidis after 18 to 20 hr by agar dilution method; format: functional
Salmonella typhimurium = assay: Antimicrobial activity against Salmonella enterica subsp. enterica serovar Typhimurium after 18 to 20 hr by agar dilution method; format: functional
Proteus mirabilis = assay: Antimicrobial activity against Proteus mirabilis after 18 to 20 hr by agar dilution method; format: functional
Proteus vulgaris = assay: Antimicrobial activity against Proteus vulgaris after 18 to 20 hr by agar dilution method; format: functional
Edwardsiella tarda = assay: Antimicrobial activity against Edwardsiella tarda after 18 to 20 hr by agar dilution method; format: functional
Escherichia coli = assay: Antimicrobial activity against Escherichia coli NCTC 10418 after 18 to 20 hr by agar dilution method; format: functional
Salmonella typhi = assay: Antimicrobial activity against Salmonella enterica subsp. enterica serovar Typhi after 18 to 20 hr by agar dilution method; format: functional
Salmonella paratyphi = assay: Antimicrobial activity against Salmonella enterica subsp. enterica serovar Paratyphi A after 18 to 20 hr by agar dilution method; format: functional
Vibrio parahaemolyticus = assay: Antimicrobial activity against Vibrio parahaemolyticus after 18 to 20 hr by agar dilution method; format: functional
Vibrio cholerae [3] = assay: Antimicrobial activity against Vibrio cholerae 0139 after 18 to 20 hr by agar dilution method; format: functional; settings: 139
Vibrio fluvialis = assay: Antimicrobial activity against Vibrio fluvialis after 18 to 20 hr by agar dilution method; format: functional
Vibrio mimicus = assay: Antimicrobial activity against Vibrio mimicus after 18 to 20 hr by agar dilution method; format: functional
Pseudomonas aeruginosa = assay: Antimicrobial activity against Pseudomonas aeruginosa after 18 to 20 hr by agar dilution method; format: functional
Staphylococcus aureus = assay: Antimicrobial activity against Staphylococcus aureus after 18 to 20 hr by agar dilution method; format: functional
Morganella morganii = assay: Antimicrobial activity against Morganella morganii after 18 to 20 hr by agar dilution method; format: functional
Shigella boydii = assay: Antimicrobial activity against Shigella boydii after 18 to 20 hr by agar dilution method; format: functional
Plesiomonas = assay: Antimicrobial activity against Plesiomonas after 18 to 20 hr by agar dilution method; format: functional
Shigella sonnei = assay: Antimicrobial activity against Shigella sonnei after 18 to 20 hr by agar dilution method; format: functional
Klebsiella pneumoniae [4] = assay: Antimicrobial activity against Klebsiella pneumoniae after 18 to 20 hr by agar dilution method; format: functional
Klebsiella pneumoniae [5] = assay: Antimicrobial activity against Klebsiella pneumoniae subsp. ozaenae after 18 to 20 hr by agar dilution method; format: functional
[6] = system: Mycobacterium tuberculosis; assay: Antimycobacterial activity against Mycobacterium tuberculosis H37Rv ATCC 27294 at 6.25 ug/ml by MABA; format: functional
[7] = Cytotoxicity against Homo sapiens (human) HuH7 cells assessed as cell growth at 50 ug/ml after 3 days by Neutral red assay; format: cell-based, Huh-7; settings: read-out: Activity
[8] = Cytotoxicity against Homo sapiens (human) CEM cells after 5 days by MTT assay; format: cell-based; settings: CEM cells (CCRF-CEM)
[9] = system: Human immunodeficiency virus 1; assay: Antiviral activity against Human immunodeficiency virus 1 IIIB infected CEM cells assessed as protection against viral infection after 6 days by XTT assay; format: functional, CCRF-CEM; parameters: concentration or dose not given beside the values
[10] = system: Human immunodeficiency virus 1; assay: Antiviral activity against Human immunodeficiency virus 1 IIIB infected CEM cells assessed as inhibition of virus-induced cytopathicity after 6 days by XTT assay; format: functional, organism-based; settings: CCRF-CEM, 144 h
[11] = Cytotoxicity against Homo sapiens (human) MT4 cells after 5 days by MTT assay; format: cell-based
[12] = system: Human immunodeficiency virus 1; assay: Antiviral activity against Human immunodeficiency virus 1 IIIB infected MT4 cells assessed as inhibition of virus-induced cytopathicity after 5 days by MTT assay; format: functional, organism-based; settings: MT4, 120 h
Hepatitis C virus = assay: Antiviral activity against Hepatitis C virus BM4-5 infected in Huh7 cells assessed as inhibition of viral RNA replication by phosphor screening method; format: functional, Hepacivirus hominis, Huh-7
[13] = system: Human immunodeficiency virus 1; assay: Antiviral activity against Human immunodeficiency virus 1 IIIB infected MT4 cells assessed as protection against viral infection after 5 days by MTT assay; format: functional; parameters: concentration or dose not given beside the values

Compound | MIC (Vibrio cholerae [2]) [µg/mL] | MIC (Priestia megaterium) [µg/mL] | MIC (Enterobacter) [µg/mL] | MIC (Citrobacter freundii) [µg/mL] | MIC (Salmonella enteritidis) [µg/mL] | MIC (Salmonella typhimurium) [µg/mL] | MIC (Proteus mirabilis) [µg/mL] | MIC (Proteus vulgaris) [µg/mL] | MIC (Edwardsiella tarda) [µg/mL] | MIC (Escherichia coli) [µg/mL] | MIC (Salmonella typhi) [µg/mL] | MIC (Salmonella paratyphi) [µg/mL] | MIC (Vibrio parahaemolyticus) [µg/mL] | MIC (Vibrio cholerae [3]) [µg/mL] | MIC (Vibrio fluvialis) [µg/mL] | MIC (Vibrio mimicus) [µg/mL] | MIC (Pseudomonas aeruginosa) [µg/mL] | MIC (Staphylococcus aureus) [µg/mL] | MIC (Morganella morganii) [µg/mL] | MIC (Shigella boydii) [µg/mL] | other results
COc1cc(Cc2cnc(/N=C3\C(=O)N(CN4CCCCC4C)c4ccc(Cl)cc43)nc2N)cc(OC)c1OC (centres undefined) | 4.88 (≈ 8.64 µM) | 625 (≈ 1110 µM) | 625 (≈ 1110 µM) | 625 (≈ 1110 µM) | 625 (≈ 1110 µM) | 1250 (≈ 2210 µM) | 625 (≈ 1110 µM) | 625 (≈ 1110 µM) | 1250 (≈ 2210 µM) | 625 (≈ 1110 µM) | 1250 (≈ 2210 µM) | 625 (≈ 1110 µM) | 1.22 (≈ 2.16 µM) | 625 (≈ 1110 µM) | 1250 (≈ 2210 µM) | 0.61 (≈ 1.08 µM) | 1250 (≈ 2210 µM) | 312 (≈ 553 µM) | 1250 (≈ 2210 µM) | 4.88 (≈ 8.64 µM) | selectivity ratio [1]: 3; MIC (Plesiomonas): 19.5 µg/mL (≈ 34.6 µM); MIC (Shigella sonnei): 1250 µg/mL (≈ 2210 µM); MIC (Klebsiella pneumoniae [4]): 1250 µg/mL (≈ 2210 µM); MIC (Klebsiella pneumoniae [5]): 1250 µg/mL (≈ 2210 µM); inhibition at 6.25 µg/mL [6]: 10%; viability at 72 h, 50 ug/ml [7]: 112%; CC50 at 120 h [8]: > 83.8 µg/mL; Activity [9]: 20.7%; EC50 [10]: > 83.8 µg/mL; CC50 at 120 h [11]: 97.3 µg/mL (≈ 172 µM); EC50 [12]: 32.6 µg/mL (≈ 57.7 µM); inhibition (INH) (Hepatitis C virus): 89%; Activity [13]: 62.6%
CCCCN(CCCC)CN1C(=O)/C(=N\c2ncc(Cc3cc(OC)c(OC)c(OC)c3)c(N)n2)c2cc(Cl)ccc21 | 0.61 (≈ 1.03 µM) | 1250 (≈ 2100 µM) | 1250 (≈ 2100 µM) | 1250 (≈ 2100 µM) | 625 (≈ 1050 µM) | 1250 (≈ 2100 µM) | 1250 (≈ 2100 µM) | 1250 (≈ 2100 µM) | 1250 (≈ 2100 µM) | 1250 (≈ 2100 µM) | 1250 (≈ 2100 µM) | 625 (≈ 1050 µM) | 19.5 (≈ 32.8 µM) | 625 (≈ 1050 µM) | 1250 (≈ 2100 µM) | 4.88 (≈ 8.2 µM) | 2500 (≈ 4200 µM) | 1250 (≈ 2100 µM) | 625 (≈ 1050 µM) | 39.1 (≈ 65.6 µM) | selectivity ratio [1]: 3; MIC (Plesiomonas): 39.1 µg/mL (≈ 65.6 µM); MIC (Shigella sonnei): 1250 µg/mL (≈ 2100 µM); MIC (Klebsiella pneumoniae [4]): 1250 µg/mL (≈ 2100 µM); MIC (Klebsiella pneumoniae [5]): 1250 µg/mL (≈ 2100 µM); inhibition at 6.25 µg/mL [6]: 67%; viability at 72 h, 50 ug/ml [7]: 48%; CC50 at 120 h [11]: 62.6 µg/mL (≈ 105 µM); EC50 [12]: 16.1 µg/mL (≈ 27.1 µM); inhibition (INH) (Hepatitis C virus): 84%; Activity [13]: 73.2%
COc1cc(Cc2cnc(/N=C3\C(=O)N(CN4CCN(C)CC4)c4ccc(Cl)cc43)nc2N)cc(OC)c1OC | 1.22 (≈ 2.16 µM) | 1250 (≈ 2210 µM) | 312 (≈ 552 µM) | 1250 (≈ 2210 µM) | 1250 (≈ 2210 µM) | 1250 (≈ 2210 µM) | 1250 (≈ 2210 µM) | 1250 (≈ 2210 µM) | 625 (≈ 1100 µM) | 1250 (≈ 2210 µM) | 1250 (≈ 2210 µM) | 156 (≈ 276 µM) | 0.61 (≈ 1.08 µM) | 312 (≈ 552 µM) | 1250 (≈ 2210 µM) | 1.22 (≈ 2.16 µM) | 1250 (≈ 2210 µM) | 1250 (≈ 2210 µM) | 1250 (≈ 2210 µM) | 19.5 (≈ 34.5 µM) | MIC (Plesiomonas): 4.88 µg/mL (≈ 8.62 µM); MIC (Shigella sonnei): 1250 µg/mL (≈ 2210 µM); MIC (Klebsiella pneumoniae [4]): 1250 µg/mL (≈ 2210 µM); MIC (Klebsiella pneumoniae [5]): 1250 µg/mL (≈ 2210 µM); inhibition at 6.25 µg/mL [6]: 35%; viability at 72 h, 50 ug/ml [7]: 83%; CC50 at 120 h [8]: 88 µg/mL (≈ 155 µM); Activity [9]: 21.09%; EC50 [10]: > 88 µg/mL; CC50 at 120 h [11]: 80.7 µg/mL (≈ 143 µM); EC50 [12]: > 80.7 µg/mL; inhibition (INH) (Hepatitis C virus): 71%; Activity [13]: 48.6%
COc1cccc(N2CCN(CN3C(=O)/C(=N\c4ncc(Cc5cc(OC)c(OC)c(OC)c5)c(N)n4)c4cc(Cl)ccc43)CC2)c1 | 1.22 (≈ 1.85 µM) | 1250 (≈ 1900 µM) | 1250 (≈ 1900 µM) | 1250 (≈ 1900 µM) | 1250 (≈ 1900 µM) | 2500 (≈ 3800 µM) | 2500 (≈ 3800 µM) | 1250 (≈ 1900 µM) | 1250 (≈ 1900 µM) | 2500 (≈ 3800 µM) | 1250 (≈ 1900 µM) | 156 (≈ 237 µM) | 2.44 (≈ 3.71 µM) | 312 (≈ 475 µM) | 1250 (≈ 1900 µM) | 0.61 (≈ 0.927 µM) | 2500 (≈ 3800 µM) | 156 (≈ 237 µM) | 2500 (≈ 3800 µM) | 0.61 (≈ 0.927 µM) | MIC (Plesiomonas): 0.61 µg/mL (≈ 0.927 µM); MIC (Shigella sonnei): 625 µg/mL (≈ 950 µM); MIC (Klebsiella pneumoniae [4]): 625 µg/mL (≈ 950 µM); MIC (Klebsiella pneumoniae [5]): 1250 µg/mL (≈ 1900 µM); inhibition at 6.25 µg/mL [6]: 33%; viability at 72 h, 50 ug/ml [7]: 71%; CC50 at 120 h [8]: 23.3 µg/mL (≈ 35.4 µM); Activity [9]: 21.93%; EC50 [10]: > 23.3 µg/mL; CC50 at 120 h [11]: 32.6 µg/mL (≈ 49.5 µM); EC50 [12]: > 32.6 µg/mL; inhibition (INH) (Hepatitis C virus): 100%; Activity [13]: 10.7%
COc1cc(Cc2cnc(/N=C3\C(=O)N(CN4CCN(c5cccc(Cl)c5)CC4)c4ccc(Cl)cc43)nc2N)cc(OC)c1OC | 0.61 (≈ 0.921 µM) | 1250 (≈ 1890 µM) | 625 (≈ 943 µM) | 1250 (≈ 1890 µM) | 1250 (≈ 1890 µM) | 625 (≈ 943 µM) | 1250 (≈ 1890 µM) | 1250 (≈ 1890 µM) | 1250 (≈ 1890 µM) | 1250 (≈ 1890 µM) | 1250 (≈ 1890 µM) | 1250 (≈ 1890 µM) | 1.22 (≈ 1.84 µM) | 625 (≈ 943 µM) | 625 (≈ 943 µM) | 9.76 (≈ 14.7 µM) | 156 (≈ 236 µM) | 1250 (≈ 1890 µM) | 1250 (≈ 1890 µM) | 19.5 (≈ 29.5 µM) | MIC (Plesiomonas): 19.5 µg/mL (≈ 29.5 µM); MIC (Shigella sonnei): 1250 µg/mL (≈ 1890 µM); MIC (Klebsiella pneumoniae [4]): 1250 µg/mL (≈ 1890 µM); MIC (Klebsiella pneumoniae [5]): 1250 µg/mL (≈ 1890 µM); inhibition at 6.25 µg/mL [6]: 44%; viability at 72 h, 50 ug/ml [7]: 67%; CC50 at 120 h [8]: 34.4 µg/mL (≈ 51.9 µM); Activity [9]: 23%; EC50 [10]: > 34.4 µg/mL; CC50 at 120 h [11]: 39.2 µg/mL (≈ 59.2 µM); EC50 [12]: > 39.2 µg/mL; inhibition (INH) (Hepatitis C virus): 96%; Activity [13]: 20.9%
